As a reminder, the IC50 is the point on the concentration scale where inhibition reaches its midpoint. A high value points to lower potency. Usually EC50 stands for the concentration that produces a half-maximal response. Higher therefore signals a need for much substance.

For assay [1], the target named is T1, Melanocortin receptor 4 (Homo sapiens, UniProt P32245). In words: Inhibitory activity against [125I]NDP-alpha-MSH binding to the human melanocortin 4 receptor.
For assay [2], the target named is T1, Melanocortin receptor 4. Description: Intracellular level of cAMP in cells expressing the melanocortin 4 receptor. The format is functional.
For assay [3], the target named is Melanocyte-stimulating hormone receptor (Mus musculus, UniProt Q01727). Description: Inhibitory activity against mouse melanocortin 1 receptor.
Sequence of Melanocyte-stimulating hormone receptor (Q01727 whole entry): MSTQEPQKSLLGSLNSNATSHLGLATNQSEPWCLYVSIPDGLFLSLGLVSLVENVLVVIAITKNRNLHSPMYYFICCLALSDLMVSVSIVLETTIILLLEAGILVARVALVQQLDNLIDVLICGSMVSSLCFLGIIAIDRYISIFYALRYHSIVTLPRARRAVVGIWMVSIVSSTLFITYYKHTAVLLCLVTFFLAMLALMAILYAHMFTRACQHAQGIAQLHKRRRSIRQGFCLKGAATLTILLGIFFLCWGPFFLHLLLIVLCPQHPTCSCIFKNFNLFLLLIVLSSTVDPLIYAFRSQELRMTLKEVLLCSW
The target in assay [4] is Melanocortin receptor 3 (Homo sapiens, UniProt P41968). In words: Inhibitory activity against human melanocortin 3 receptor.
Sequence of Melanocortin receptor 3 (P41968 whole entry): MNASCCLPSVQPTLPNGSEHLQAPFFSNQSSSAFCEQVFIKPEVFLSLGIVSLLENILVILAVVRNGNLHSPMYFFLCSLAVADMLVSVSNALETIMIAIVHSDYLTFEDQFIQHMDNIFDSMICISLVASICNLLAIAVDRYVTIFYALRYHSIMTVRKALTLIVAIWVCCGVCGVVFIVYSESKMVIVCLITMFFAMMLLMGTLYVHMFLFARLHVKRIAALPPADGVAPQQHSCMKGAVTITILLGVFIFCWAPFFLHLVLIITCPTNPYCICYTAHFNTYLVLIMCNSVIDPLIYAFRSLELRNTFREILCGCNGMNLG
Assay [5] addresses T1, Melanocortin receptor 4. Description: Percentage of maximal response with respect to alpha-MSH in cells expressing the melanocortin 4 receptor. It is filed as functional.

Structures are written as SMILES.

T1 sequence (P32245 whole entry): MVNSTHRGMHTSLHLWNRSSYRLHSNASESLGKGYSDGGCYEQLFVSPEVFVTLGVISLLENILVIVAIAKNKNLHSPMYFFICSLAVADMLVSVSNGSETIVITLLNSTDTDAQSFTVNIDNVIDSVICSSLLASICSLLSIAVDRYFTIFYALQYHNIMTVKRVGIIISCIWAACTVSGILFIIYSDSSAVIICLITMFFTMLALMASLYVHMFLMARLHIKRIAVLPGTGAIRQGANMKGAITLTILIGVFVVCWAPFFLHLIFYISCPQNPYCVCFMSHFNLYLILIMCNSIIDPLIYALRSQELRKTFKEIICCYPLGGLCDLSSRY

Consider `CS(=O)(=O)N(CC1CC1)c1ccccc1N1CCN(C(=O)[C@H](CC(=O)N2CCNCC2)Cc2ccc(Cl)cc2)CC1`, for which the IC50 in assay [1] was 220 nM; in assay [3] it was more than 8000 nM; in assay [4], more than 8000 nM. This compound came in with an EC50 in assay [2] of 2000 nM. In assay [5], this compound had an Activation of 70%.

As for `CS(=O)(=O)N(CC1CC1)c1ccccc1N1CCN(C(=O)[C@H](CC(=O)N2CCN(CC3CC3)CC2)Cc2ccc(Cl)cc2)CC1`, the IC50 in assay [1] worked out at 3 nM. In assay [2], this compound yielded an EC50 of more than 10000 nM. This compound returned an Activation in assay [5] of 0%.

As to `CC(C)(C)CC(=O)N1CCN(C(=O)C[C@H](Cc2ccc(Cl)cc2)C(=O)N2CCN(c3ccccc3N(CC3CC3)S(C)(=O)=O)CC2)CC1`, the IC50 is less than 0.1 nM in assay [1], more than 1800 nM in assay [3] and more than 10000 nM in assay [4]. The EC50 in assay [2] was 74 nM. The same compound had an Activation in assay [5] of 45%.

For `CCN(C(C)=O)C(C)c1ccccc1N1CCN(C(=O)[C@H](CC(=O)NCc2ccccn2)Cc2ccc(Cl)cc2)CC1` (some centres undefined), the IC50 in assay [1] amounted to 32 nM. This compound also had an EC50 in assay [2] of 37 nM. The compound further showed an Activation in assay [5] of 95%.

Turning to `CS(=O)(=O)N(CC1CC1)c1ccccc1N1CCN(C(=O)[C@H](CC(=O)N2CCN(C(=O)c3ccccc3)CC2)Cc2ccc(Cl)cc2)CC1`, in assay [1], the IC50 was found to be 4.4 nM. In addition, the EC50 in assay [2] was 83 nM. The Activation in assay [5] is 55%.

`CS(=O)(=O)N1CC2(CCN(C(=O)[C@@H](Cc3ccc(Cl)cc3)NC(=O)[C@H]3Cc4ccccc4CN3)CC2)c2ccccc21`: the IC50 in assay [1] came to 66 nM; in assay [3], 153 nM; in assay [4] it was 2900 nM. The compound further displayed an EC50 in assay [2] of 5.2 nM. Further, the Activation in assay [5] stood at 100%.

On to `CCN(C(C)=O)C(C)c1ccccc1N1CCN(C(=O)[C@H](CC(=O)N2CCC2)Cc2ccc(Cl)cc2)CC1` (some centres undefined), for which the IC50 is 19 nM in assay [1], more than 1400 nM in assay [3] and more than 10000 nM in assay [4]. This compound registered an EC50 in assay [2] of 340 nM. Also, in assay [5], the Activation came out at 90%.

In turn, `CCN(C(C)=O)C(C)c1ccccc1N1CCN(C(=O)[C@H](CC(=O)N2CCN(C(=O)OC(C)(C)C)CC2)Cc2ccc(Cl)cc2)CC1` (some centres undefined) displayed an IC50 in assay [1] of 2 nM. The compound further returned an EC50 in assay [2] of more than 10000 nM. The same compound registered an Activation in assay [5] of 0%.

In the case of `CCN(C(C)=O)C(C)c1ccccc1N1CCN(C(=O)[C@H](CC(=O)NCc2ccccc2F)Cc2ccc(Cl)cc2)CC1` (some centres undefined), the IC50 was 13 nM in assay [1], more than 1600 nM in assay [3] and more than 10000 nM in assay [4]. Moreover, the response in assay [2] was half-maximal at 89 nM (EC50). In assay [5], this compound came in with an Activation of 100%.

Regarding `CCCN1CCN(C(=O)C[C@H](Cc2ccc(Cl)cc2)C(=O)N2CCN(c3ccccc3N(CC3CC3)S(C)(=O)=O)CC2)CC1`, the IC50 is 8.9 nM in assay [1], more than 10000 nM in assay [3] and more than 10000 nM in assay [4]. This compound also yielded an EC50 in assay [2] of more than 10000 nM. The same compound displayed an Activation in assay [5] of 0%.

In assay [1], `CC(C)CCN1CCN(C(=O)C[C@H](Cc2ccc(Cl)cc2)C(=O)N2CCN(c3ccccc3N(CC3CC3)S(C)(=O)=O)CC2)CC1` had an IC50 of 4.8 nM. This compound also showed an EC50 in assay [2] of more than 10000 nM. This compound also had an Activation in assay [5] of 0%.

As for `CCN(C(C)=O)C(C)c1ccccc1N1CCN(C(=O)[C@H](CC(=O)N2CCSC2)Cc2ccc(Cl)cc2)CC1` (some centres undefined), in assay [1], the half-inhibitory concentration (IC50) is 9.4 nM. This compound returned an EC50 in assay [2] of 530 nM. Moreover, the Activation in assay [5] came out at 80%.

In assay [1], `CCN1CCN(C(=O)C[C@H](Cc2ccc(Cl)cc2)C(=O)N2CCN(c3ccccc3N(CC3CC3)S(C)(=O)=O)CC2)CC1` came in with an IC50 of 9.5 nM. The compound further had a 50% effective concentration (EC50) in assay [2] of more than 10000 nM. For the same compound, the Activation in assay [5] turned out to be 0%.

For the compound `CCOC(=O)N1CCN(C(=O)C[C@H](Cc2ccc(Cl)cc2)C(=O)N2CCN(c3ccccc3N(CC3CC3)S(C)(=O)=O)CC2)CC1`, the IC50 in assay [1] was 1.4 nM; in assay [3], more than 10000 nM; in assay [4], more than 10000 nM. Besides, in assay [2], the EC50 is more than 10000 nM. Also, in assay [5], the Activation came to 0%.

Regarding `CC(C)(C)OC(=O)N1CCN(C(=O)C[C@H](Cc2ccc(Cl)cc2)C(=O)N2CCN(c3ccccc3N(CC3CC3)S(C)(=O)=O)CC2)CC1`, the IC50 was 3.3 nM in assay [1], more than 10000 nM in assay [3] and more than 3500 nM in assay [4]. The compound further gave an EC50 in assay [2] of more than 10000 nM. The same compound registered an Activation in assay [5] of 0%.

`CS(=O)(=O)N(CC1CC1)c1ccccc1N1CCN(C(=O)[C@@H](Cc2ccc(Cl)cc2)NC(=O)C2CCNCC2)CC1`: in assay [1], the IC50 turned out to be 130 nM. The same compound registered an EC50 in assay [2] of less than 0.1 nM. The same compound had an Activation in assay [5] of more than 90%.

With `CCN(C(C)=O)C(C)c1ccccc1N1CCN(C(=O)[C@H](CC(=O)NC2CCC2)Cc2ccc(Cl)cc2)CC1` (some centres undefined), the IC50 is 5.8 nM in assay [1], more than 600 nM in assay [3] and more than 10000 nM in assay [4]. The compound further registered an EC50 in assay [2] of 15 nM. Also, in assay [5], the Activation was determined as 100%.

Turning to `CC(=O)N1CCN(C(=O)C[C@H](Cc2ccc(Cl)cc2)C(=O)N2CCN(c3ccccc3N(CC3CC3)S(C)(=O)=O)CC2)CC1`, the IC50 was 11 nM in assay [1], more than 10000 nM in assay [3] and more than 10000 nM in assay [4]. This compound also returned an EC50 in assay [2] of more than 10000 nM. This compound also came in with an Activation in assay [5] of 0%.

Values taken from ChEMBL document CHEMBL1148424, “Synthesis of novel melanocortin 4 receptor agonists and antagonists containing a succinamide core” (Bioorg Med Chem Lett, 2004).
